From publication PMC10781884 (Computational and Structural Biotechnology Journal, 2023) come the findings set out here.

Ends that are not written are not given here.

The test system of one test is Pseudomonas fluorescens. The experiment in a line: Bactericidal activity of MPEG1 peptides, plate count. The note with it: peptide 20 µM, 4 h. It is filed as cell-based.
As for RRHKSVKRDSRGLT [Nv], the “effect on the propagation of P. fluorescens” value was “slightly enhance the propagation”.

Turning to RRNRRRSRSSLSPTTSN [Aj-2], the “effect on the propagation of P. fluorescens” value is given as “slightly enhance the propagation”.

The test system of a further test is Micrococcus luteus. Nature of the test: Minimum inhibitory and minimum bactericidal concentrations. The note with it: bacterium not named in the method sentence; Fig. 6 uses Micrococcus luteus. It is filed as cell-based.
Take KCFLRRRRSRA [Bc]: the “minimum bactericidal concentrations (MBCs)” value amounted to 20 µM. On to MKRRRKFSHFSFKRGY [Dr-2], for which the “minimum bactericidal concentrations (MBCs)” value was found to be 10 µM.

Take RKWRSKRKQKSKKSSQRYM [Aq-2]: the “minimum bactericidal concentrations (MBCs)” value was found to be 40 µM. VKRRRRLAGFRTVRGY [Sc]: the “minimum bactericidal concentrations (MBCs)” value amounted to 20 µM.
